The values that follow come from US20260258064A1 (SIRONAX LTD., priority 2023, published 2026).

For this assay, the target named is T1, SARM1 (50-724) (Homo sapiens, UniProt Q6SZW1).
T1 construct: Purified SARM1 (50-724) with a final concentration of 2 nM was pre-incubated with a test compound
T1 sequence (Q6SZW1 50-724): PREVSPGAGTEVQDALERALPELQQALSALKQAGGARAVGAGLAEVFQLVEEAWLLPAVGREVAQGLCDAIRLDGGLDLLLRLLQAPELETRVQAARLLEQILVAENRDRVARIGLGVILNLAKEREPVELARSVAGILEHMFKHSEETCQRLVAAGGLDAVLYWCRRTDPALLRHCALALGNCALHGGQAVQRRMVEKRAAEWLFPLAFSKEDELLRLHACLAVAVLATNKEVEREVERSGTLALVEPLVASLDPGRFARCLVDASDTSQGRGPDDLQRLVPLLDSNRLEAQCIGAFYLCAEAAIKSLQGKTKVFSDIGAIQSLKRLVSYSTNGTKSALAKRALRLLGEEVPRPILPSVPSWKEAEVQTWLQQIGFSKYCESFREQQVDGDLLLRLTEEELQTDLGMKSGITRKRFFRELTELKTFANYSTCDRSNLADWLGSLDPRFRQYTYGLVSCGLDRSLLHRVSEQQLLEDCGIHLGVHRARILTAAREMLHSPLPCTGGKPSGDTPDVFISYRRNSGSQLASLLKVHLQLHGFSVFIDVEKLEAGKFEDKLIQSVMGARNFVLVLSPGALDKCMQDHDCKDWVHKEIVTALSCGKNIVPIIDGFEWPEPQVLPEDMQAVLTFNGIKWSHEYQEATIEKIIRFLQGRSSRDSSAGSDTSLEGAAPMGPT
Nature of the assay: SARM1 (50-724) enzymatic assay (LC-MS/MS). It is filed as biochemical. The following applies: Purified SARM1 (50-724) 2 nM, NMN as activator, NAD+ as substrate, 1 h at room temperature, read-out: IC50 (SARM1 inhibitory activity). The gist of the method:
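Reaction buffer was Dulbecco's PBS. Compound and 2 nM human SARM1 (50-724) were pre-incubated 15 min at room temperature, then […] NAD^+ and 200 µM NMN activator were added for 1 h at room temperature. Acetonitrile (70%) stop, LC-MS/MS read-out, IC50 values.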
The IC50 is the concentration at which inhibition is half-maximal. Consider `Fc1cc(C2CC23COC3)cc2nc(-c3nncn3-c3cnccc3C(F)(F)F)[nH]c12` (stereo not drawn) [Compound 413, 7-fluoro-5-(5-oxaspiro[2.3]hexan-2-yl)-2-[4-[4-(trifluoromethyl)-3-pyridyl]-1,2,4-triazol-3-yl]-1H-benzimidazole], for which the IC50 is not above 100 nM.
Take `Fc1cc(C2CC23CCOC3)cc2nc(-c3nncn3-c3cnccc3C(F)(F)F)[nH]c12` (stereo not drawn) [Compound 414, 7-fluoro-5-(5-oxaspiro[2.4]heptan-2-yl)-2-[4-[4-(trifluoromethyl)-3-pyridyl]-1,2,4-triazol-3-yl]-1H-benzimidazole]: the concentration for half-maximal inhibition (IC50) was not above 100 nM.
`FC(F)(F)c1ccc2[nH]c(-c3nncn3-c3cncnc3C(F)(F)F)nc2c1` [Compound 415, 5-(trifluoromethyl)-2-(4-(4-(trifluoromethyl)pyrimidin-5-yl)-4H-1,2,4-triazol-3-yl)-1H-benzo[d]imidazole]: the IC50 was not above 100 nM.
With `OCC1CC1c1cc(F)c2[nH]c(-c3nncn3-c3cnccc3C(F)(F)F)nc2c1` (stereo not drawn) [Compound 416, (2-(7-fluoro-2-(4-(4-(trifluoromethyl)pyridin-3-yl)-4H-1,2,4-triazol-3-yl)-1H-benzo[d]imidazol-5-yl)cyclopropyl)methanol] the figure was not above 100 nM; with `CN(c1cc(F)c2[nH]c(-c3nncn3-c3cnccc3C(F)(F)F)nc2c1)c1nccs1` [Compound 417, N-(7-fluoro-2-(4-(4-(trifluoromethyl)pyridin-3-yl)-4H-1,2,4-triazol-3-yl)-1H-benzo[d]imidazol-5-yl)-N-methylthiazol-2-amine], not above 100 nM; with `CC(C)(O)c1cc(F)c2[nH]c(-c3nnccc3-c3cnccc3C(F)(F)F)nc2c1` [Compound 418, 2-(4-fluoro-2-(4-(4-(trifluoromethyl)pyridin-3-yl)pyridazin-3-yl)-1H-benzo[d]imidazol-6-yl)propan-2-ol], not above 100 nM.
With `Fc1cccc(-n2c(CCc3nccs3)nnc2-c2nc3cc(C(F)(F)F)ccc3[nH]2)c1Cl` [Compound 419, 2-(2-(4-(2-chloro-3-fluorophenyl)-5-(5-(trifluoromethyl)-1H-benzo[d]imidazol-2-yl)-4H-1,2,4-triazol-3-yl)ethyl)thiazole], the IC50 is 100 to 500 nM.
Regarding `Fc1cc(C2CC2)cc2nc(-c3nnccc3-c3cnccc3C(F)(F)F)[nH]c12` [Compound 420, 6-cyclopropyl-4-fluoro-2-(4-(4-(trifluoromethyl)pyridin-3-yl)pyridazin-3-yl)-1H-benzo[d]imidazole], the half-inhibitory concentration (IC50) is not above 100 nM.
In the case of `CC1(O)CC(Cc2nnc(-c3nc4cc(C(F)(F)F)ccc4[nH]3)n2-c2cccc(F)c2Cl)C1` (stereo not drawn) [Compound 421, 3-((4-(2-chloro-3-fluorophenyl)-5-(5-(trifluoromethyl)-1H-benzo[d]imidazol-2-yl)-4H-1,2,4-triazol-3-yl)methyl)-1-methylcyclobutan-1-ol], the IC50 is not above 100 nM.
As to `Fc1cc(C2(c3nccs3)CC2)cc2nc(-c3nncn3-c3cnccc3C(F)(F)F)[nH]c12` [Compound 422, 2-[1-[7-fluoro-2-[4-[4-(trifluoromethyl)-3-pyridyl]-1,2,4-triazol-3-yl]-1H-benzimidazol-5-yl]cyclopropyl]thiazole], the IC50 is not above 100 nM.
Take `CC1CC(c2cc(F)c3[nH]c(-c4nncn4-c4cnccc4C(F)(F)F)nc3c2)CO1` (stereo not drawn) [Compound 423, 7-fluoro-5-(5-methyltetrahydrofuran-3-yl)-2-[4-[4-(trifluoromethyl)-3-pyridyl]-1,2,4-triazol-3-yl]-1H-benzimidazole]: the IC50 was not above 100 nM.
`O=S1(c2cc(F)c3[nH]c(-c4nncn4-c4cnccc4C(F)(F)F)nc3c2)=NCCC1` (stereo not drawn) [Compound 424, 1-[7-fluoro-2-[4-[4-(trifluoromethyl)-3-pyridyl]-1,2,4-triazol-3-yl]-1H-benzimidazol-5-yl]-4,5-dihydro-3H-isothiazole 1-oxide]: the IC50 was more than 1000 nM.
With `N#CC1(c2c(-c3nncn3-c3cnccc3C(F)(F)F)[nH]c3ccc(C(F)(F)F)cc23)CC1` [Compound 425, 1-[5-(trifluoromethyl)-2-[4-[4-(trifluoromethyl)-3-pyridyl]-1,2,4-triazol-3-yl]-1H-indol-3-yl]cyclopropanecarbonitrile], the IC50 is not above 100 nM.
In the case of `FC(F)(F)c1ccc2[nH]c(-c3nncn3-c3cnccc3C(F)(F)F)c(-c3cccnn3)c2c1` [Compound 426, 3-pyridazin-3-yl-5-(trifluoromethyl)-2-[4-[4-(trifluoromethyl)-3-pyridyl]-1,2,4-triazol-3-yl]-1H-indole], the IC50 is not above 100 nM.
`FC(F)(F)c1ccc2[nH]c(-c3nncn3-c3cnccc3C(F)(F)F)c(-c3ccnnc3)c2c1` [Compound 427, 3-pyridazin-4-yl-5-(trifluoromethyl)-2-[4-[4-(trifluoromethyl)-3-pyridyl]-1,2,4-triazol-3-yl]-1H-indole]: the IC50 is not above 100 nM.
With `FC(F)(F)c1ccc2[nH]c(-c3nncn3-c3cnccc3C(F)(F)F)c(-c3ncccn3)c2c1` [Compound 428, 3-pyrimidin-2-yl-5-(trifluoromethyl)-2-[4-[4-(trifluoromethyl)-3-pyridyl]-1,2,4-triazol-3-yl]-1H-indole] the figure was not above 100 nM; with `FC(F)(F)c1ccc2[nH]c(-c3nncn3-c3nnccc3C(F)(F)F)nc2c1` [Compound 429, 5-(trifluoromethyl)-2-(4-(4-(trifluoromethyl)pyridazin-3-yl)-4H-1,2,4-triazol-3-yl)-1H-benzo[d]imidazole], not above 100 nM; with `CC(c1cc(F)c2[nH]c(-c3nncn3-c3cnccc3C(F)(F)F)nc2c1)c1cc[nH]n1` (stereo not drawn) [Compound 430, 5-(1-(1H-pyrazol-5-yl)ethyl)-7-fluoro-2-(4-(4-(trifluoromethyl)pyridin-3-yl)-4H-1,2,4-triazol-3-yl)-1H-benzo[d]imidazole], not above 100 nM.
Regarding `CC(c1ccccc1)c1cc(F)c2[nH]c(-c3nncn3-c3cnccc3C(F)(F)F)nc2c1` (stereo not drawn) [Compound 431, 7-fluoro-5-(1-phenylethyl)-2-(4-(4-(trifluoromethyl)pyridin-3-yl)-4H-1,2,4-triazol-3-yl)-1H-benzo[d]imidazole], the IC50 is not above 100 nM.
On to `CC(c1cc(F)c2[nH]c(-c3nncn3-c3cnccc3C(F)(F)F)nc2c1)c1ncco1` (stereo not drawn) [Compound 435, 2-(1-(7-fluoro-2-(4-(4-(trifluoromethyl)pyridin-3-yl)-4H-1,2,4-triazol-3-yl)-1H-benzo[d]imidazol-5-yl)ethyl)oxazole], for which the half-maximal inhibitory concentration (IC50) was not above 100 nM.
With `CC1CCN(c2cc(F)c3[nH]c(-c4nncn4-c4cnccc4C(F)(F)F)nc3c2)C1` (stereo not drawn) [Compound 436, 4-fluoro-6-(3-methylpyrrolidin-1-yl)-2-(4-(4-(trifluoromethyl)pyridin-3-yl)-4H-1,2,4-triazol-3-yl)-1H-benzo[d]imidazole] the figure was not above 100 nM; with `N#CCc1cccc2[nH]c(-c3nncn3-c3cnccc3C(F)(F)F)nc12` [Compound 437, 2-(2-(4-(4-(trifluoromethyl)pyridin-3-yl)-4H-1,2,4-triazol-3-yl)-1H-benzo[d]imidazol-4-yl)acetonitrile], more than 1000 nM.
Turning to `CS(=O)(=O)Cn1cc(-c2nc3cc(C(F)(F)F)ccc3[nH]2)c(-c2cccc(Cl)c2Cl)n1` [Compound 438, 2-(3-(2,3-dichlorophenyl)-1-((methylsulfonyl)methyl)-1H-pyrazol-4-yl)-5-(trifluoromethyl)-1H-benzo[d]imidazole], the IC50 was more than 1000 nM.
On to `CS(=O)(=O)Cn1ncc(-c2nc3cc(C(F)(F)F)ccc3[nH]2)c1-c1cccc(Cl)c1Cl` [Compound 439, 2-(5-(2,3-dichlorophenyl)-1-((methylsulfonyl)methyl)-1H-pyrazol-4-yl)-5-(trifluoromethyl)-1H-benzo[d]imidazole], for which the IC50 lay in the range of 100 to 500 nM.
With `Fc1cc(C2CC2COC(F)F)cc2nc(-c3nncn3-c3cnccc3C(F)(F)F)[nH]c12` (stereo not drawn) [Compound 440, 5-(2-((difluoromethoxy)methyl)cyclopropyl)-7-fluoro-2-(4-(4-(trifluoromethyl)-pyridin-3-yl)-4H-1,2,4-triazol-3-yl)-1H-benzo[d]imidazole], the IC50 was not above 100 nM.
Turning to `OCC1(c2cc(F)c3[nH]c(-c4nncn4-c4cnccc4C(F)(F)F)nc3c2)CC1` [Compound 441, (1-(7-fluoro-2-(4-(4-(trifluoromethyl)pyridin-3-yl)-4H-1,2,4-triazol-3-yl)-1H-benzo[d]imidazol-5-yl)cyclopropyl)methanol], the IC50 is not above 100 nM.
On to `N#CC1(c2cccc3[nH]c(-c4nncn4-c4cnccc4C(F)(F)F)nc23)CC1` [Compound 442, 1-(2-(4-(4-(trifluoromethyl)pyridin-3-yl)-4H-1,2,4-triazol-3-yl)-1H-benzo[d]imidazol-4-yl)cyclopropane-1-carbonitrile], for which the IC50 fell in the range of 100 to 500 nM.
